# Laboratory results reported in patent US20080114047A1 (priority 2003, published 2008).
# Where “and” joins values, the source holds several entries; their conditions need not be identical. Equal entries are not always repeated. Where two headings read alike, the source gives them in different places.
# Columns and labels:
# [1] = system: L. donovani axenic amastigotes; experiment: In vitro anti-leishmania activity (IC50 vs. L. donovani axenic amastigotes); type: cell-based; details: Leishmania donovani
# [2] = system: Trypanosoma brucei rhodesiense; experiment: Anti-protozoan data: T.b.r. IC50; type: cell-based; details: read-out: T.b.r. IC50
# [3] = system: Trypanosoma cruzi; experiment: Anti-protozoan data: T. cruzi IC50; type: cell-based; details: read-out: T. cruzi IC50
# [4] = system: Plasmodium falciparum; experiment: Anti-protozoan data: P. falcip. IC50; type: cell-based; details: read-out: P. falcip. IC50
# [5] = system: DNA; experiment: DNA binding ΔTm
# [6] = system: Mycobacterium tuberculosis; experiment: Compounds tested against Mycobacterium tuberculosis (MIC90); type: cell-based
# [7] = system: Candida albicans; experiment: Anti-fungal data: Candida albicans; type: cell-based; details: for MFC / MIC80: strain A39; for MIC: strain A39, read-out: Candida albicans (A39) MIC100
# [8] = system: Aspergillus fumigatus; experiment: Anti-fungal data: Aspergillus fumigatus; type: cell-based; details: for MFC / MIC80: strain DUMC 168.95; for MIC: strain DUMC 168.95, read-out: Aspergillus. Fumigatus (DUMC 168.95) MIC100
# [9] = in vitro
# [10] = system: Cryptococcus neoformans; experiment: Anti-fungal data: Cryptococcus neoformans; type: cell-based
# [11] = Tables VI(a), VI(c), read-out: Leishmania donovani IC50
# [12] = axenic amastigotes, Tables I-V, read-out: IC50 vs. L. donovani
# [13] = Table VII(b), read-out: M. tb MIC90
SMILES,"IC50 [1, 11] [µM]","IC50 [1, 12] [µM]","IC50 ([2]; Tables VI(a), VI(c)) [µM]","IC50 ([3]; Tables VI(a), VI(c)) [µM]","IC50 ([4]; Tables VI(a), VI(c)) [µM]",MIC90 ([6]; read-out: M. tb. MIC90),MFC [7] [µg/mL],MIC80 [7] [µg/mL],MIC [7] [µg/mL],MIC80 [8] [µg/mL],MIC [8] [µg/mL],melting point [°C],IC50 [9] [µM],other results
"Cl.Cl.N=C(N)c1ccc(OCCCOc2cccc(-c3cc4cc(C(=N)N)ccc4o3)c2)cc1 [Compound 32, 2-(3-(3-(4-Carbamimidoylphenoxy)propoxy)phenyl)benzofuran-5-carboxamidine dihydrochloride]",3.42 ± 0.9,3.42 ± 0.9,0.907,16.1,0.0397,0.53 µg/mL and 1 µM,10,≤ 1,10,10,100,175 to 178,10.4,"DNA binding Δ Tm ([5]; Tables VI(a), VI(c)): 18.7; MFC [8]: > 100 µg/mL"
"CC(C)NC(=N)c1ccc(OCCCOc2ccc(-c3cc4cc(C(=N)NC(C)C)ccc4o3)cc2)cc1.Cl.Cl [Compound 45, 2-(4-(3-(4-(N-Isopropylcarbamimidoyl)phenoxy)propoxy)phenyl)-N-isopropylbenzofuran-5-carboxamidine dihydrochloride]",1.56 ± 0.58,,0.0409,70.4,0.0418,1.12 µg/mL and 1.86 µM,10,10,10,100,> 100,301 to 302,45.6,
"Cl.Cl.c1cc(C2=NCCN2)ccc1OCCCCOc1ccc(-c2cc3cc(C4=NCCN4)ccc3o2)cc1 [Compound 49, 2-(2-(4-(4-(4-(4,5-Dihydro-1H-imidazol-2-yl)phenoxy)butoxy)phenyl)benzofuran-5-yl) -4,5-dihydro-1H-imidazole dihydrochloride]",9.21 ± 2.25,9.21 ± 2.25,0.374,4.51,0.0641,,,100,> 100,100,> 100,291 to 293,2.88,"DNA binding Δ Tm ([5]; Tables VI(a), VI(c)): 18.8"
"Cl.Cl.c1cc(C2=NCCN2)ccc1OCCCCCOc1ccc(-c2cc3cc(C4=NCCN4)ccc3o2)cc1 [Compound 52, 2-(2-(4-(5-(4-(4,5-Dihydro-1H-imidazol-2-yl)phenoxy)pentyloxy)phenyl)benzofuran-5-yl)-4,5-dihydro-1H-imidazole dihydrochloride]",39.4 ± 7.35,,0.338,2.27,0.06,10.1 µg/mL and 16.9 µM,10,10,10,10,100,258 to 261,0.87,MFC [8]: > 100 µg/mL
"CC(C)NC(=N)c1ccc(OCCCCCCOc2ccc(-c3cc4cc(C(=N)NC(C)C)ccc4o3)cc2)cc1.Cl.Cl [Compound 54, 2-(4-(6-(4-(N-Isopropylcarbamimidoyl)phenoxy)hexyloxy)phenyl)-N-isopropylbenzofuran-5-carboxamidine dihydrochloride]",5.4 ± 1.46,,0.211,1.21,0.0634,65.8 µg/mL and 102 µM,,> 100,> 100,> 100,> 100,288 to 291,0.85,
"Cl.Cl.N=C(N)c1ccc(OCCCOc2cccc(-c3cc4ccc(C(=N)N)cc4o3)c2)cc1 [Compound 56, 2-(3-(3-(4-Carbamimidoylphenoxy)propoxy)phenyl)benzofuran-6-carboxamidine dihydrochloride]",11.2 ± 0.28,11.2 ± 0.28,0.327,11.1,0.084,1.02 µg/mL and 1.93 µM,,,,,,196 to 200,19.8,
"Cl.Cl.c1cc(OCCCCCCOc2ccc(C3=NCCN3)cc2)cc(-c2cc3ccc(C4=NCCN4)cc3o2)c1 [Compound 67, 2-(2-(3-(6-(4-(4,5-Dihydro-1H-imidazol-2-yl)phenoxy)hexyloxy)phenyl)benzofuran-6-yl)-4,5-dihydro-1H-imidazole dihydrochloride]",43.5 ± 0.69,43.5 ± 0.69,0.681,3.67,0.0412,18 µg/mL and 29.4 µM,1.56,1.56,1.56,12.5,12.5,182 to 186,1.79,"MFC [8]: > 100 µg/mL; MFC ([10]; strain H99): 1.56 µg/mL; MIC80 ([10]; strain H99): 0.781 µg/mL; MIC ([10]; strain H99, read-out: Cryptococcus neoformans (H99) MIC100): 1.56 µg/mL"
"Cl.Cl.c1cc(C2=NCCN2)ccc1OCCCCCCOc1ccc(-c2cc3ccc(C4=NCCN4)cc3o2)cc1 [Compound 79, 2-(2-(4-(6-(4-(4,5-Dihydro-1H-imidazol-2-yl)phenoxy)hexyloxy)phenyl)benzofuran-6-yl)-4,5-dihydro-1H-imidazole dihydrochloride]",15.3 ± 1.72,15.3 ± 1.72,0.224,2.15,0.0316,2.14 µg/mL and 3.51 µM,,,,,,265 to 269,3.44,
"c1cc(C2=NCCN2)cc(-c2cc3cc(C4=NCCN4)ccc3o2)c1 [Compound 168, 2-(3-(5-(4,5-dihydro-1H-imidazol-2-yl)benzofuran-2-yl)phenyl)-4,5-dihydro-1H-imidazole]",,23.7 ± 0.17,,,,,,,,,,,33.9,"IC50 ([1]; read-out: L. Donovani IC50): 23.7 ± 0.17 µM; IC50 [2]: 0.0776 µM; IC50 [3]: 39.6 µM; IC50 [4]: 0.0758 µM; MIC90 [6, 13]: 10.8 µg/mL and 25.7 µM"
"N=C(NO)c1ccc(-c2cc3cc(C(=N)NO)ccc3o2)cc1 [Compound 178, 2-(4-(N-Hydroxycarbamimidoyl)phenyl)-N-hydroxybenzofuran-5-carboxamidine]",,,,,,,,,,,,,> 235,"IC50 ([1]; read-out: L. Donovani IC50): > 100 µM; IC50 [2]: 23.6 µM; IC50 [3]: > 235 µM; IC50 [4]: 0.783 µM; DNA binding Δ Tm [5]: 4.50; MIC90 [6, 13]: > 128 µM"
"N=C(NO)c1ccc(OCCCOc2ccc(-c3cc4cc(C(=N)NO)ccc4o3)cc2)cc1 [Compound 182, 2-(4-(3-(4-(N-Hydroxycarbamimidoyl)phenoxy)propoxy)phenyl)-N-hydroxybenzofuran-5-carboxamidine]",5.02 ± 0.93,,1.34,1.7,1.4,0.65 µg/mL and 1.2 µM,,,,,,,2.64,"DNA binding Δ Tm ([5]; Tables VI(a), VI(c)): 1.10"
"CONC(=N)c1ccc2oc(CCCCCc3cc4cc(C(=N)NOC)ccc4o3)cc2c1 [Compound 193, 2-(5-(5-(N-Methoxycarbamimidoyl)benzofuran-2-yl)pentyl)-N-methoxybenzofuran-5-carboxamidine]",> 100,,> 18.6,19.1,> 1.86,4.25 µg/mL and 7.88 µM,,,,,,,35.6,
